Experimental data reported in US20120277209A1, “PYRAZINE COMPOUNDS AS PHOSPHODIESTERASE 10 INHIBITORS” (Amgen Inc., priority 2009, published 2012).

Molecular target: PDE10 (UniProt Q9Y233)
Experiment: PDE10 enzyme inhibition, IMAP TR-FRET assay (MPDE10A7 Enzyme Activity and Inhibition)
Type: biochemical
Conditions: IC50 class against PDE10; read-out: IC50
Method: All compounds were divided in five classes based on their IC50 values against PDE10. The range of the IC50 in each class is as follows:
An IMAP TR-FRET assay was used to analyze the enzyme activity (Molecular Devices Corp., Sunnyvale Calif.). 5 μL of serial diluted PDE10A (BPS Bioscience, San Diego, Calif.) or tissue homogenate was incubated with equal volumes of diluted fluorescein labeled cAMP or cGMP for 60 min in 384-well polystyrene assay plates (Corning, Corning, N.Y.) at room temperature. After incubation, the reaction was stopped by adding 60 μL of diluted binding reagents and was incubated for 3 hours to overnight at room temperature. The plates were read on an Envision (Perkin Elmer, Waltham, Mass.) for time resolved fluorescence resonance energy transfer. The data were analyzed with GraphPad Prism (La Jolla, Calif.).
Enzyme Inhibition. To check the inhibition profile, 5 μL of serial diluted compounds were incubated with 5 μL of diluted PDE10 enzyme (BPS Bioscience, San Diego, Calif.) or tissue homogenate in a 384-well polystyrene assay plate (Corning, Corning, N.Y.) for 30 min at room temperature. After incubation, 10 μL of diluted fluorescein labeled cAMP or cGMP substrate were added and incubated for 60 min at room temperature. The reaction was stopped by adding 60 μL of diluted binding reagents and plates were read on an Envision (Perkin Elmer, Waltham, Mass.) for time resolved fluorescence resonance energy transfer. The data were analyzed with GraphPad Prism (La Jolla, Calif.).
The tabulated IC50 data represent an average IC50 data for each compound.

SMILES | IC50
Fc1ccc2nc(Nc3ccc(Oc4nccnc4C4CCOCC4)cc3)sc2c1 [Example 214, 6-fluoro-N-(4-(3-(tetrahydro-2H-pyran-4-yl)pyrazin-2-yloxy)phenyl)benzo[d]thiazol-2-amine] | < 25 nM
O=C(c1ccc(Oc2nccnc2OCC(F)(F)F)cc1)c1nc2ccccc2[nH]1 [Example 164] | 250 to 1000 nM
c1ccc2sc(Nc3ccc(Oc4nccnc4-c4cnc5[nH]ccc5c4)cc3)nc2c1 [Example 141, N-(4-(3-(1H-pyrrolo[2,3-b]pyridin-5-yl)pyrazin-2-yloxy)phenyl)benzo[d]thiazol-2-amine] | 25 to 100 nM
O=C(c1ccc(Oc2nccnc2OCc2ccccn2)cc1)c1nc2ccccc2[nH]1 [Example 166, (1H-benzo[d]imidazol-2-yl)(4-(3-(pyridin-2-ylmethoxy)pyrazin-2-yloxy)phenyl)methanone] | 25 to 100 nM
COc1ccccc1-c1nccnc1Oc1ccc(C(=O)c2nc3ccccc3[nH]2)cc1 [Example 114, (1H-benzo[d]imidazol-2-yl)(4-(3-(2-methoxyphenyl)pyrazin-2-yloxy)phenyl)methanone] | 25 to 100 nM
CC(O)(C1CCN(c2nccnc2Oc2ccc(Nc3nc4ccccc4s3)cc2)CC1)C(F)(F)F (stereo not drawn) [Example 73, 2-(1-(3-(4-(benzo[d]thiazol-2-ylamino)phenoxy)pyrazin-2-yl)piperidin-4-yl)-1,1,1-trifluoropropan-2-ol] | 250 to 1000 nM
COc1ncccc1-c1nccnc1Oc1ccc(C(=O)c2nc3ccccc3n2C)cc1 [Example 119, (4-(3-(2-methoxypyridin-3-yl)pyrazin-2-yloxy)phenyl)(1-methyl-1H-benzo[d]imidazol-2-yl)methanone] | < 25 nM
O=C(c1ccc(Oc2nccnc2C2=CCC(F)(F)CC2)cc1)c1nc2ccccc2[nH]1 [Example 199, (1H-benzo[d]imidazol-2-yl)(4-(3-(4,4-difluorocyclohex-1-enyl)pyrazin-2-yloxy)phenyl)methanone] | < 25 nM
c1ccc2sc(Nc3ccc(Oc4nccnc4C4CCOCC4)cc3)nc2c1 [Example 208, N-(4-(3-(tetrahydro-2H-pyran-4-yl)pyrazin-2-yloxy)phenyl)benzo[d]thiazol-2-amine] | < 25 nM
COc1nccnc1Oc1ccc(C(=O)c2nc3ccccc3[nH]2)cc1 [Example 160, (1H-benzo[d]imidazol-2-yl)(4-(3-methoxypyrazin-2-yloxy)phenyl)methanone] | 1000 to 5000 nM
CC(=O)N1CCC(c2nccnc2Oc2ccc(C(=O)c3nc4ccccc4[nH]3)cc2)CC1 [Example 224, 1-(4-(3-(4-(1H-BENZO[D]IMIDAZOLE-2-CARBONYL)PHENOXY)PYRAZIN-2-YL)PIPERIDIN-1-YL)ETHANONE] | < 25 nM
O=C(c1ccc(Oc2nccnc2OCCN2CCCC2)cc1)c1nc2ccccc2[nH]1 [Example 173, (1H-benzo[d]imidazol-2-yl)(4-(3-(2-(pyrrolidin-1-yl)ethoxy)pyrazin-2-yloxy)phenyl)methanone] | 100 to 250 nM
c1ccc2sc(Nc3ccc(Oc4nccnc4C4CCCC4)cc3)nc2c1 [compound 223, N-(4-(3-cyclopentylpyrazin-2-yloxy)phenyl)benzo [d]thiazol-2-amine] | < 25 nM
c1ccc2sc(Nc3ccc(Oc4nccnc4N4CCC4)cc3)nc2c1 [Example 77, N-(4-(3-(azetidin-1-yl)pyrazin-2-yloxy)phenyl)benzo[d]thiazol-2-amine] | 25 to 100 nM
CC(C)(C)OC(=O)N1CCC(CO)(c2nccnc2Oc2ccc(Nc3nc4ccccc4s3)cc2)CC1 [Example 206, tert-butyl 4-(3-(4-(benzo[d]thiazol-2-ylamino)phenoxy)pyrazin-2-yl)-4-(hydroxymethyl)piperidine-1-carboxylate] | 25 to 100 nM
CN1CCC(c2nccnc2Oc2ccc(C(=O)c3nc4ccccc4[nH]3)cc2)CC1=O (stereo not drawn) [Example 253, 4-(3-(4-(1H-benzo[d]imidazole-2-carbonyl)phenoxy)pyrazin-2-yl)-1-methylpiperidin-2-one] | < 25 nM
O=C(c1ccc(Oc2nccnc2Cl)cc1)c1nc2ccccc2[nH]1 [Example 3, (1H-BENZO[D]IMIDAZOL-2-YL)(4-(3-CHLOROPYRAZIN-2-YLOXY)PHENYL)METHANONE] | 1000 to 5000 nM
CCCOc1nccnc1Oc1ccc(C(=O)c2nc3ccccc3[nH]2)cc1 [Example 180, (1H-benzo[d]imidazol-2-yl)(4-(3-propoxypyrazin-2-yloxy)phenyl)methanone] | 1000 to 5000 nM
CN1CCN(c2nccnc2Oc2ccc(Nc3nc4ccccc4s3)cc2)CC1 [Example 72, N-(4-(3-(4-methylpiperazin-1-yl)pyrazin-2-yloxy)phenyl)-benzo[d]thiazol-2-amine] | 25 to 100 nM
O=C1CCCC(c2nccnc2Oc2ccc(C(=O)c3nc4ccccc4[nH]3)cc2)C1 (racemic) [Example 210, (rac)-3-(3-(4-(1H-benzo[d]imidazole-2-carbonyl)phenoxy)pyrazin-2-yl)cyclohexanone] | < 25 nM
Fc1ccc2nc(Nc3ccc(Oc4nccnc4Cl)cc3)sc2c1 [Example 62, N-(4-(3-CHLOROPYRAZIN-2-YLOXY)PHENYL)-6-FLUOROBENZO[D]THIAZOL-2-AMINE] | 1000 to 5000 nM
N#CC1(c2nccnc2Oc2ccc(C(=O)c3nc4ccccc4[nH]3)cc2)CCOCC1 [Example 211, 4-(3-(4-(1H-benzo[d]imidazole-2-carbonyl)phenoxy)pyrazin-2-yl)tetrahydro-2H-pyran-4-carbonitrile] | < 25 nM
CC(=O)N1CCC(c2nccnc2Oc2ccc(C(O)c3nc4ccccc4[nH]3)cc2)CC1 (stereo not drawn) [Example 228, 1-(4-(3-(4-((1H-benzo[d]imidazol-2-yl)(hydroxy)methyl)phenoxy)pyrazin-2-yl)piperidin-1-yl)ethanone] | < 25 nM

Same assay, conditions: PDE10 enzyme inhibition; average IC50 data for each compound; read-out: Average IC50

SMILES | IC50
O=C(c1ccc(Oc2nccnc2C2CCNCC2)cc1)c1nc2ccccc2[nH]1 [drawing 999] | 7.7 nM
c1ccc(Nc2ccc(Oc3nccnc3NCC3CCNCC3)cc2)nc1 | 814 nM
C[C@H](F)C(=O)N1CCC(c2nccnc2Oc2ccc(Nc3nc4ccccc4s3)cc2)CC1 (stereo in doubt) | 0.178 nM
CC(C)N1CCN(c2nccnc2Oc2ccc(Nc3nc4ccccc4s3)cc2)CC1=O [drawing 766] | 12.7 nM
c1ccc2sc(Nc3ccc(Oc4nccnc4-c4ccc(N5CCOCC5)cc4)cc3)nc2c1 [drawing 763] | 1070 nM
Fc1cccc2nc(Nc3ccc(Oc4cnccn4)cc3)sc12 [drawing 880] | 803 nM
Cc1ncccc1-c1nccnc1Oc1ccc(C(=O)c2nc3ccccc3n2C)cc1 [drawing 957] | 8.78 nM
O=C(c1ccc(Oc2nccnc2OCc2ccncc2)cc1)c1nc2ccccc2[nH]1 [drawing 859] | 14 nM
C[C@@H]1CN(c2nccnc2Oc2ccc(C(=O)c3nc4ccccc4[nH]3)cc2)CC(=O)N1 (stereo in doubt) | 2.57 nM
COc1ncccc1-c1nccnc1Oc1ccc(Nc2nc3cccc(F)c3s2)cc1 [drawing 950] | 7.76 nM
O=C(c1ccc(Oc2nccnc2N2CC[C@H](O)C2)cc1)c1nc2ccccc2[nH]1 | 5.12 nM
Cc1ncccc1-c1nccnc1Oc1ccc(C(=O)c2nc3ccccc3[nH]2)cc1 [drawing 947] | 2.07 nM
c1ccc2sc(Nc3ccc(Oc4nccnc4-c4cncnc4)cc3)nc2c1 [drawing 778] | 12.9 nM
O=C(c1ccc(Oc2nccnc2C2=CCC(F)(F)CC2)cc1)c1nc2ccccc2[nH]1 [drawing 862] | 14.2 nM
COc1ncccc1-c1nccnc1Oc1ccc(Nc2nc3ccccc3s2)c(F)c1 [drawing 972] | 2.68 nM
O=C(c1ccc(Oc2nccnc2-c2ccncc2)cc1)c1nc2ccccc2[nH]1 [drawing 755] | 7.5 nM
COc1ncccc1-c1nccnc1Oc1ccc(C(=O)c2nc3cc(F)ccc3[nH]2)cc1 [drawing 931] | 5.84 nM
O=C(c1ccc(Oc2nccnc2N2CCC(N3CCOCC3)CC2)cc1)c1nc2ccccc2[nH]1 | 27 nM
CC(=O)N1CCC(c2nccnc2Oc2ccc(C(=O)c3nc4ccccc4[nH]3)cc2)CC1 [drawing 889] | 0.182 nM
N#CCC(=O)N1CCC(c2nccnc2Oc2ccc(C(=O)c3nc4ccccc4[nH]3)cc2)CC1 [drawing 997] | 0.025 nM
Clc1ccc(-c2nccnc2Oc2ccc(Nc3nc4ccccc4s3)cc2)cn1 [drawing 794] | 14.6 nM
COc1ncccc1-c1nccnc1Oc1ccc(Nc2nc3ccccc3s2)cc1 [drawing 886] | 3.67 nM

Same assay, conditions: PDE10 enzyme inhibition; chiral compounds separated from racemic mixtures; read-out: IC50

SMILES | IC50
O=C(c1ccc(Oc2nccnc2[C@H]2CCC[C@H](O)C2)cc1)c1nc2ccccc2[nH]1 [Example 273, (1H-benzo[d]imidazol-2-yl)(4-(3-((1S,3S)-3-hydroxycyclohexyl)pyrazin-2-yloxy)phenyl) methanone] | < 25 nM
C[C@H]1CN(c2nccnc2Oc2ccc(Nc3nc4ccccc4s3)cc2)CC(=O)N1 [Example 268, (S)-4-(3-(4-(benzo[d]thiazol-2-ylamino)phenoxy)pyrazin-2-yl)-6-methylpiperazin-2-one] | < 25 nM
C[C@H](F)C(=O)N1CCC(c2nccnc2Oc2ccc(Nc3nc4ccccc4s3)cc2)CC1 [Example 280, (S)-1-(4-(3-(4-(benzo[d]thiazol-2-ylamino)phenoxy)pyrazin-2-yl)piperidin-1-yl)-2-fluoropropan-1-one] | < 25 nM
